The values that follow come from PMC8550792, “Evolution of kinase polypharmacology across HSP90 drug discovery” (Cell Chemical Biology, 2021).

Test [1] has as its target ABL1. On the set-up: method as in Becher et al., 2013. The following applies: chemoproteomics; ref Becher et al., 2013; read-out: Kd,app (ATP-Mg), ABL1; cited from earlier work.
The target in the next test is ABL2. Further details: method as in Becher et al., 2013. The following applies: chemoproteomics; ref Becher et al., 2013; read-out: Kd,app (ATP-Mg), ABL2; cited from earlier work.
The target in test [2] is DDR1. Further details: method as in Becher et al., 2013. The following applies: chemoproteomics; ref Becher et al., 2013; read-out: Kd,app (ATP-Mg), DDR1; cited from earlier work.
Another test has as its target T1, ABL2/ARG (Homo sapiens, UniProt P42684).
T1 construct: purchased Reaction Biology (HotSpot contract assay)
Kind of test: HotSpot in vitro kinase radiometric assay. Type of test: biochemical. The following applies: ABL2/ARG; 10uM; ATP 30 uM; Data 1, Data 2; read-out: % Enzyme Activity (relative to DMSO controls).

In the next test the target is T2, BLK (Homo sapiens, UniProt P51451).
T2 construct: purchased Reaction Biology (HotSpot contract assay)
Kind of test: HotSpot in vitro kinase radiometric assay. It is filed as biochemical. The following applies: BLK; 10uM; ATP 10 uM; Data 1, Data 2; read-out: % Enzyme Activity (relative to DMSO controls). In a few lines: (§1)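 Compounds were incubated with kinase, substrate, cofactors and radiolabelled ATP (32P-ɣ-ATP or 33P-ɣ-ATP), then reaction mixtures were spotted onto filter paper that binds the labelled product. Catalytic inhibition was measured directly, without modified substrates, coupling enzymes or antibodies.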

Another test addresses T3, LYN B (Homo sapiens, UniProt P07948).
T3 construct: purchased Reaction Biology (HotSpot contract assay)
The experiment in a line: HotSpot in vitro kinase radiometric assay. Type of test: biochemical. The following applies: LYN B; 10uM; ATP 20 uM; Data 1, Data 2; read-out: % Enzyme Activity (relative to DMSO controls). In a few lines: as §1

For another test, the target named is T4, c-Src (Homo sapiens, UniProt P12931).
T4 construct: purchased Reaction Biology (HotSpot contract assay)
Kind of test: HotSpot in vitro kinase radiometric assay. Type of test: biochemical. The conditions noted are these: c-Src; 10uM; ATP 15 uM; Data 1, Data 2; read-out: % Enzyme Activity (relative to DMSO controls). A digest of the protocol: as §1

In another test the target is T5, PEAK1 (Homo sapiens, UniProt Q9H792).
T5 construct: purchased Reaction Biology (HotSpot contract assay)
The experiment in a line: HotSpot in vitro kinase radiometric assay. It is filed as biochemical. The following applies: PEAK1; 10uM; ATP 30 uM; Data 1, Data 2; read-out: % Enzyme Activity (relative to DMSO controls).

The target of the next test is T6, FGR (Homo sapiens, UniProt P09769).
T6 construct: purchased Reaction Biology (HotSpot contract assay)
The experiment in a line: HotSpot in vitro kinase radiometric assay. It is filed as biochemical. The following applies: FGR; 10uM; ATP 50 uM; Data 1, Data 2; read-out: % Enzyme Activity (relative to DMSO controls).

In the next test the target is T7, FYN (Homo sapiens, UniProt P06241).
T7 construct: purchased Reaction Biology (HotSpot contract assay)
Kind of test: HotSpot in vitro kinase radiometric assay. Type of test: biochemical. The conditions noted are these: FYN; 10uM; ATP 30 uM; Data 1, Data 2; read-out: % Enzyme Activity (relative to DMSO controls).

The next test deals with T8, PASK (Homo sapiens, UniProt Q96RG2).
T8 construct: purchased Reaction Biology (HotSpot contract assay)
Kind of test: HotSpot in vitro kinase radiometric assay. Type of test: biochemical. The conditions noted are these: PASK; 10uM; ATP 50 uM; Data 1, Data 2; read-out: % Enzyme Activity (relative to DMSO controls). The source says: (§2) Accordingly, we selected five additional representative HSP90 inhibitors, at least one from each chemical class, including both synthetic inhibitors and natural products.
(§3) Accordingly, we screened the hit compound and the two leads for kinase off-target inhibition using the 16-kinase panel and the same in vitro catalytic assay used previously.
(§4) This radioisotope binding assay was designed to directly detect the true product without the use of modified substrates, coupling enzymes, or detection antibodies thus enabling to directly measure inhibition of catalytic activity. Test or control compounds were incubated with kinase, substrate, cofactors, and radioisotope-labeled ATP (32P-ɣ-ATP or 33P-ɣ-ATP). The reaction mixtures were then spotted onto filter papers, which bind the radioisotope-labeled catalytic product.

The next test has as its target T9, TRKA (Homo sapiens, UniProt P04629).
T9 construct: purchased Reaction Biology (HotSpot contract assay)
Kind of test: HotSpot in vitro kinase radiometric assay. The following applies: TRKA; 10uM; ATP 100 uM; Data 1, Data 2; read-out: % Enzyme Activity (relative to DMSO controls). Type of test: biochemical.
Excerpt: as §2, §3, §4

The target in another test is T10, TRKC (Homo sapiens, UniProt Q16288).
T10 construct: purchased Reaction Biology (HotSpot contract assay)
The experiment in a line: HotSpot in vitro kinase radiometric assay. It is filed as biochemical. The conditions noted are these: TRKC; 10uM; ATP 100 uM; Data 1, Data 2; read-out: % Enzyme Activity (relative to DMSO controls).

The next test concerns the target T11, LCK (Homo sapiens, UniProt P06239).
T11 construct: purchased Reaction Biology (HotSpot contract assay)
Kind of test: HotSpot in vitro kinase radiometric assay. Type of test: biochemical. The conditions noted are these: LCK; 10uM; ATP 15 uM; Data 1, Data 2; read-out: % Enzyme Activity (relative to DMSO controls).

For the next test, the target named is T12, YES/YES1 (Homo sapiens, UniProt P07947).
T12 construct: purchased Reaction Biology (HotSpot contract assay)
The experiment in a line: HotSpot in vitro kinase radiometric assay. It is filed as biochemical. The conditions noted are these: YES/YES1; 10uM; ATP 50 uM; Data 1, Data 2; read-out: % Enzyme Activity (relative to DMSO controls).

For another test, the system named is 16-kinase panel. The experiment in a line: 16-kinase panel screening, in vitro radiometric assay. Type of test: biochemical, human. The following applies: 10 μM.
In test [3] the target is human 3-methyl-2-oxobutanoate dehydrogenase kinase (BCKDHK). Further details: method as in Besant et al., 2002. The conditions noted are these: ref Besant et al., 2002; cited from earlier work.
In test [4] the target is bacterial sensor kinase PhoQ. On the set-up: method as in Guarnieri et al., 2008. The conditions noted are these: ref Guarnieri et al., 2008; cited from earlier work.
Test [5] deals with human pyruvate dehydrogenase kinases. On the set-up: method as in Kato et al., 2007. The following applies: ref Kato et al., 2007; cited from earlier work.
The target of test [6] is ABL1 (Homo sapiens, UniProt P00519). The experiment in a line: HotSpot in vitro kinase radiometric assay. It is filed as biochemical. Further details: purchased Reaction Biology (HotSpot contract assay). The conditions noted are these: ABL1; 10uM; ATP 40 uM; Data 1, Data 2; read-out: % Enzyme Activity (relative to DMSO controls).
Test [7] addresses DDR1 (Homo sapiens, UniProt Q08345). Kind of test: HotSpot in vitro kinase radiometric assay. It is filed as biochemical. On the set-up: purchased Reaction Biology (HotSpot contract assay). The following applies: DDR1; 10uM; ATP 100 uM; Data 1, Data 2; read-out: % Enzyme Activity (relative to DMSO controls).

T1 sequence (P42684 whole entry): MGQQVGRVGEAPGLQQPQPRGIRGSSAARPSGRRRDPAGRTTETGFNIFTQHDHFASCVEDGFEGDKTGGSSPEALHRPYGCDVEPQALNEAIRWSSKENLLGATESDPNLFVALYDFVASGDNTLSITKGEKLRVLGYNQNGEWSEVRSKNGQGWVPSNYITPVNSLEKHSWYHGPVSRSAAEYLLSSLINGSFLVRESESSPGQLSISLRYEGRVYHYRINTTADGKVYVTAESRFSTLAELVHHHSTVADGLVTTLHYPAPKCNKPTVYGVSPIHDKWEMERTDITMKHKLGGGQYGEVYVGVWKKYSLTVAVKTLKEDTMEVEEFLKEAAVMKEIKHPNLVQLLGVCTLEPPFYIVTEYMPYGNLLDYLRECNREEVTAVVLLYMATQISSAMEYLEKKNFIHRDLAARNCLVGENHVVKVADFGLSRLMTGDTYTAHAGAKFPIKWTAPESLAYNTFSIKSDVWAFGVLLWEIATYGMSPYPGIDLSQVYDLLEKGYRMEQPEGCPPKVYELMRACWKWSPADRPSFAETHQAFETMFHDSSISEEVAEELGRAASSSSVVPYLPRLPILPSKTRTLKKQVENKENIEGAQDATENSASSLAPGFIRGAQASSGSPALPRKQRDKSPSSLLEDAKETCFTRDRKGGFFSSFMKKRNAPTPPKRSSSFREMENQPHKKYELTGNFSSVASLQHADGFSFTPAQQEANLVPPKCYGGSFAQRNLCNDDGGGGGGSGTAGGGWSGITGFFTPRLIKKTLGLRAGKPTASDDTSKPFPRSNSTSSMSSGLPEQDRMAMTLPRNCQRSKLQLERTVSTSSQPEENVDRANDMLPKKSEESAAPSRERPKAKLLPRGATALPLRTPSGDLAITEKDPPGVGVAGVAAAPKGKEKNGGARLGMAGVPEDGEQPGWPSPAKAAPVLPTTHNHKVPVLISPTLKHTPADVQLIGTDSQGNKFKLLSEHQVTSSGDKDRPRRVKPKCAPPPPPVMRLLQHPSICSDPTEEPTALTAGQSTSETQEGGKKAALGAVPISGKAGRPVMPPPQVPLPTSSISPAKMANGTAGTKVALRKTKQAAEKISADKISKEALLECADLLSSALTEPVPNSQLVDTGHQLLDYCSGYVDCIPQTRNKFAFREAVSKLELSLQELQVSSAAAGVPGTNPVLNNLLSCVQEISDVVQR
T2 sequence (P51451 whole entry): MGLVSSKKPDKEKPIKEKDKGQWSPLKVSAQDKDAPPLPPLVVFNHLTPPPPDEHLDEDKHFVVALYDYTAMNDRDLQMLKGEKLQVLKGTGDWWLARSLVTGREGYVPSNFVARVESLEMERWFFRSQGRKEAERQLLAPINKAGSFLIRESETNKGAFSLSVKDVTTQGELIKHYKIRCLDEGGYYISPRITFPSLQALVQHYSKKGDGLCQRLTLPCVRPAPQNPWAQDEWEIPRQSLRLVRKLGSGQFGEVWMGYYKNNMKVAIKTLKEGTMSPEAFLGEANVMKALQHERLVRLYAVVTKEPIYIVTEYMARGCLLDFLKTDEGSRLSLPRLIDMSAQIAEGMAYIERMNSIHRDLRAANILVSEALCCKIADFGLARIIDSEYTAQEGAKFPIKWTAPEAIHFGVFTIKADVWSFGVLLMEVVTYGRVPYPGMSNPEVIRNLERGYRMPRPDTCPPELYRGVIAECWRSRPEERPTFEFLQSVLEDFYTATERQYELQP
T6 sequence (P09769 whole entry): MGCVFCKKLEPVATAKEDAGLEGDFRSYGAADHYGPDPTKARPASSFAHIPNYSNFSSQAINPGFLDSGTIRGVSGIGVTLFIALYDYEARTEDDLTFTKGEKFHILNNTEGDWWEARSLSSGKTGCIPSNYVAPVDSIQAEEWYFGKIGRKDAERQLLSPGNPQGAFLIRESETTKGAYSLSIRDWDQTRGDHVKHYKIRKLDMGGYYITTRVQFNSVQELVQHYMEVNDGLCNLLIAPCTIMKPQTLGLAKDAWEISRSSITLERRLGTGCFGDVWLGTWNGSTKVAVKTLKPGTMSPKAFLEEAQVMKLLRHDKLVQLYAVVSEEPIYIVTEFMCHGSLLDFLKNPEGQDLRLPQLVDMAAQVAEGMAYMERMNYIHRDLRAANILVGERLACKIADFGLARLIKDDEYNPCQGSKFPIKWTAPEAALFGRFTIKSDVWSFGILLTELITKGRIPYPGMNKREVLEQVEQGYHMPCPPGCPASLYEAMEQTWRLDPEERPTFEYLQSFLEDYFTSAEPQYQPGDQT
T7 sequence (P06241 whole entry): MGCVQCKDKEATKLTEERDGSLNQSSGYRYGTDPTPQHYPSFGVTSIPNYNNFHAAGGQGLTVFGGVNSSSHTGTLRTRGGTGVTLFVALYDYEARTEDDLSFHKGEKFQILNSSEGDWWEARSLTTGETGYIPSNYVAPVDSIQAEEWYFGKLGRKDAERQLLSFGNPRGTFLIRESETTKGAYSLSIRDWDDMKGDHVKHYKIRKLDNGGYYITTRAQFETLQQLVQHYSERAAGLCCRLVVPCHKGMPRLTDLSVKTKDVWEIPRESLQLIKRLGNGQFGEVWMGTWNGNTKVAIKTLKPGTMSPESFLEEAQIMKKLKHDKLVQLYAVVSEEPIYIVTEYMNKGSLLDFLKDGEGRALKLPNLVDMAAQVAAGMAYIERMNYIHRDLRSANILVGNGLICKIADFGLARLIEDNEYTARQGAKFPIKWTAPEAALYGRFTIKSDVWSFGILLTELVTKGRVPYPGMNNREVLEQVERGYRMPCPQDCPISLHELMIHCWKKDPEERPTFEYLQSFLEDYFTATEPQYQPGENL
T4 sequence (P12931 whole entry): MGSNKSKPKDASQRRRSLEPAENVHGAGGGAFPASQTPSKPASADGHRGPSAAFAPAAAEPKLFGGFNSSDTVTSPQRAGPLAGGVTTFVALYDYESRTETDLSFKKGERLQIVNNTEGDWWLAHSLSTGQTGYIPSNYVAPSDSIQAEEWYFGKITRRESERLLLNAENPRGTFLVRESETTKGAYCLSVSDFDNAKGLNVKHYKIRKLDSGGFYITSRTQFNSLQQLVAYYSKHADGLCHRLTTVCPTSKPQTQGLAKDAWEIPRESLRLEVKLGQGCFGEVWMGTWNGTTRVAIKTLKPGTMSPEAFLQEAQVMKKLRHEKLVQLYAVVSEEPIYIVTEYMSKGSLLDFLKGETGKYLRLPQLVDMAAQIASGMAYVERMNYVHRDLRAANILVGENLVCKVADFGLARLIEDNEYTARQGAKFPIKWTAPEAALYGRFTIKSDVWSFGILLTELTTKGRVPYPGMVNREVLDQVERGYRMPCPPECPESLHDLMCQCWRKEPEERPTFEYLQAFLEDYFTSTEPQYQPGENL
Chain of DDR1 (Homo sapiens, UniProt Q08345) (Q08345 19-913): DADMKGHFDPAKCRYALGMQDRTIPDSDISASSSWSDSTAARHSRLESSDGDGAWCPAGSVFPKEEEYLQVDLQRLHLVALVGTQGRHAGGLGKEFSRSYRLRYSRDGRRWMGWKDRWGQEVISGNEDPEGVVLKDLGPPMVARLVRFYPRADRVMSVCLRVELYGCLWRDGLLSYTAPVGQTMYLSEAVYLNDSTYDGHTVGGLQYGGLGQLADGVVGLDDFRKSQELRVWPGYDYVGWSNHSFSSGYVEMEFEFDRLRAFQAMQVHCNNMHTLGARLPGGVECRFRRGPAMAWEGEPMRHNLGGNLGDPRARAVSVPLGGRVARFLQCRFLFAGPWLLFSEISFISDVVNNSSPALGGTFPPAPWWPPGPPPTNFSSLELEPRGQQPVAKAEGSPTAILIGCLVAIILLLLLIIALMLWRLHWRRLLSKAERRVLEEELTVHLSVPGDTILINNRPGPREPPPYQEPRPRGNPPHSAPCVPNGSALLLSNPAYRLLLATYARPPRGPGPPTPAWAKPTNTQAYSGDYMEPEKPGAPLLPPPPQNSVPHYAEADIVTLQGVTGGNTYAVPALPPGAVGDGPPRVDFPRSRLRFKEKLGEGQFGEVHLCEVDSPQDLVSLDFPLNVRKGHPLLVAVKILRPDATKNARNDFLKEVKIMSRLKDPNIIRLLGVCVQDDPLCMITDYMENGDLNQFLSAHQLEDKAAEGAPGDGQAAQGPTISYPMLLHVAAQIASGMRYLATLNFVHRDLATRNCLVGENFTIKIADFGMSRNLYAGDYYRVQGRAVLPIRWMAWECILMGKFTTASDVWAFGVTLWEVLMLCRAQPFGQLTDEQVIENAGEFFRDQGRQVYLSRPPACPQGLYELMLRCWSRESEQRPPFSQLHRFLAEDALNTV
T3 sequence (P07948 1-491 isoform P07948-2): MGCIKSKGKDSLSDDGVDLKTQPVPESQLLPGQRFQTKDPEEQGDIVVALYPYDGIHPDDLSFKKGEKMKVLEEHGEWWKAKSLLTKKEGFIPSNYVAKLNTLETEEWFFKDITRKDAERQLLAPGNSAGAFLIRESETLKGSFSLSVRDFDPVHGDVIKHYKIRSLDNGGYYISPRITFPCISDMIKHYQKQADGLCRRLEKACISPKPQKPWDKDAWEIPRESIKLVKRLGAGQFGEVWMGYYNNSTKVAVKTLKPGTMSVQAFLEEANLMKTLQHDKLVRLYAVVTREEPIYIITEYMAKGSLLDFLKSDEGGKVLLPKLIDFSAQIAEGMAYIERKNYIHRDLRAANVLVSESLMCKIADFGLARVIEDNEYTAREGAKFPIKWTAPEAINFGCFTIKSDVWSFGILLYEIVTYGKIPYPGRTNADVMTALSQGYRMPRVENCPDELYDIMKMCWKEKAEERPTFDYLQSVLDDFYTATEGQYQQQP

With `Nc1ncnc2c1ncn2[C@@H]1O[C@H](COP(=O)(O)OP(=O)(O)OP(=O)(O)O)[C@@H](O)[C@H]1O` [ATP-Mg], the Kd was 37 to 99 µM at ABL1 [1], 423 µM at ABL2 and more than 1000 µM on DDR1 [2].
As for `C[C@@H]1C[C@H]2O[C@@H]2/C=C\C=C\C(=O)Cc2c(Cl)c(O)cc(O)c2C(=O)O1` [Radicicol], the remaining activity at 10 µM on ABL2/ARG was found to be 117%; on BLK, 104%; at LYN B it was 114%; on c-Src it was 96.8%; at PEAK1 it was 104%; on FGR, 112%. The remaining activity at 10 µM came out at 110% at FYN; 94.4% on PASK; 106% on TRKA; 98.6% on TRKC; 119% at LCK; 103% on YES/YES1. The remaining activity at 10 µM was 106% on ABL1 [6] and 105% at DDR1 [7]. In addition, the “activity against the 16-kinase panel” value in the test on 16-kinase panel is “inactive”. Further, the IC50 (commonly the concentration that gives 50% inhibition) in [3] was 0.635 µM; in test [5] it was 230 to 400 µM. Besides, the Kd in test [4] is 715 µM.
